How the values were obtained:
[1] = test system: mtsABAD HEK293 cells; experiment: Alamar Blue cell viability assay; type: cell-based, human; conditions: 50 μM compound
Experimental: Cell viability was assessed via fluorescence change using the commercially available Alamar Blue from ThermoFisher. HEK293 cells overexpressing mts17β-HSD10 were cultured in phenol-red free media (10% FBS, 1 mM sodium pyruvate, 100 units penicillin, 0.1 mg/mL streptomycin and 2 mM L-glutamine) and seeded at a density of 10,000 cells per well (100 μL, 96 well plates). […] Treated cells were then incubated at 37° C. and CO2 (5%) for 24 hours before the assay was performed as per the manufacturer's instructions. Fluorescence was measured at 530 nm excitation and 590 nm emission using a SpectraMaxM2e spectrophotometer.

[2] = test system: mtsABAD HEK293 cells; experiment: Lactate dehydrogenase (LDH) cytotoxicity assay; type: cell-based, human; conditions: 50 μM compound
Experimental: Cell cytotoxicity was assessed via the measurement of lactate dehydrogenase leakage into the culture medium using a commercially available kit from Pierce (Thermo Scientific cat no. 88953). This was carried out in accordance with the kit guidelines, with the activity of Lactate Dehydrogenase (LDH) being calculated from the change in absorbance at […] as NADH is reduced. HEK293 cells overexpressing mts17β-HSD10 were cultured in phenol-red free media (10% fetal bovine serum (FBS), 1 mM sodium pyruvate, 100 units penicillin, 0.1 mg/mL streptomycin and 2 mM L-glutamine) and seeded at a density of 10,000 cells per well (100 μL, 96 well plates). […] Treated cells were incubated at 37° C. and CO2 (5%) for 24 hours before the LDH assay was performed as per the manufacturer's instructions. Spontaneous control (water) and maximum control (lysis buffer) used in accordance with the kit guide. Absorbance was measured at 490 nm and 680 nm using a SpectraMaxM2e spectrophotometer. The measured LDH activity was used to calculate % cytotoxicity using the following equation: […]

[3] = biological target: T1, 17β-HSD10 (Homo sapiens, UniProt Q99714); experiment: 17β-HSD10 (ABAD) enzyme inhibition assay, NADH oxidation read at 340 nm (primary screen and dose response); type: biochemical; conditions: for EC50 / Max. Effect (%) / Hill Slope / Max. Fit / Min. Fit: recombinant 17βHSD10 enzyme assay; for Hill Slope / Max. Fit / Min. Fit: curve fit
T1 construct: Histev (histidine tag with TEV site) (N, cleaved yes); made in house; host or cells: E. coli BL21-CodonPlus
T1 sequence (Q99714 1-261): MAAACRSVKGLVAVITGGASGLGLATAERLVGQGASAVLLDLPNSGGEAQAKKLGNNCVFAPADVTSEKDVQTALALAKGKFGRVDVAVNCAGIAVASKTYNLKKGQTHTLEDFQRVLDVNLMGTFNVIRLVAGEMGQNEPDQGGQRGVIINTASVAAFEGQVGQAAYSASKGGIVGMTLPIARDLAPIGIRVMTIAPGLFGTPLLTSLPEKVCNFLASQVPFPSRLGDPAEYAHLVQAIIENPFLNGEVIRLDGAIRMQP
In short: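 Screening used a 35 min room-temperature endpoint A340 read after compound (10 μM) and enzyme (2.5 nM, E. coli-expressed, His-tag removed) preincubated 15 min, then 100 μM NADH plus acetoacetyl-CoA added. Dose-response runs tracked absorbance kinetically 45 min; buffer pH 7.4 Tris with BSA, DTT.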

Cc1ccsc1C(=O)N1CCC[C@H]1c1ccccc1-c1ccc(C(F)(F)F)cc1 [ESC1002314]
Alamar Blue % Viability (50 μM Dose) [1]: 87.10% | LDH % Toxicity (50 μM Dose) [2]: 5.98% | EC50 [3]: 0.575 µM | Max. Effect (%) [3]: 99% | Hill Slope [3]: 1.2 | Max. Fit [3]: 97 | Min. Fit [3]: 0

Cc1ccsc1C(=O)N1CCC[C@H]1c1ccccc1-c1ccc(OC(F)(F)F)cc1 [ESC1002315]
Alamar Blue % Viability (50 μM Dose) [1]: 84.77% | LDH % Toxicity (50 μM Dose) [2]: 5.91% | EC50 [3]: 1.15 µM | Max. Effect (%) [3]: 95% | Hill Slope [3]: 1.1 | Max. Fit [3]: 97 | Min. Fit [3]: 0

Cc1ccsc1C(=O)N1CCC[C@H]1c1ccccc1-c1ccc(C#N)cc1 [ESC1002316]
Alamar Blue % Viability (50 μM Dose) [1]: 80.39% | LDH % Toxicity (50 μM Dose) [2]: 3.69% | EC50 [3]: 0.275 µM | Max. Effect (%) [3]: 101% | Hill Slope [3]: 0.93 | Max. Fit [3]: 100 | Min. Fit [3]: 0

Cc1ccsc1C(=O)N1CCC[C@H]1c1ccccc1-c1ccc(C(=O)N(C)C)cc1 [ESC1002317]
Alamar Blue % Viability (50 μM Dose) [1]: 83.39% | LDH % Toxicity (50 μM Dose) [2]: 4.58% | EC50 [3]: 0.912 µM | Max. Effect (%) [3]: 96% | Hill Slope [3]: 1 | Max. Fit [3]: 99 | Min. Fit [3]: 0

Cc1ccsc1C(=O)N1CCC[C@H]1c1ccccc1-c1ccc(N2CCOCC2)cc1 [ESC1002318]
Alamar Blue % Viability (50 μM Dose) [1]: 85.76% | LDH % Toxicity (50 μM Dose) [2]: 2.55% | EC50 [3]: 1.91 µM | Max. Effect (%) [3]: 91% | Hill Slope [3]: 1.1 | Max. Fit [3]: 98 | Min. Fit [3]: −1

Cc1ccsc1C(=O)N1CCC[C@H]1c1ccccc1-c1ccc(S(C)(=O)=O)cc1 [ESC1002319]
Alamar Blue % Viability (50 μM Dose) [1]: 82.10% | LDH % Toxicity (50 μM Dose) [2]: 5.17% | EC50 [3]: 5.89 µM | Max. Effect (%) [3]: 79% | Hill Slope [3]: 1 | Max. Fit [3]: 101 | Min. Fit [3]: −2

Cc1ccsc1C(=O)N1CCC[C@H]1c1ccccc1-c1cccc(C(F)(F)F)c1 [ESC1002320]
Alamar Blue % Viability (50 μM Dose) [1]: 83.37% | LDH % Toxicity (50 μM Dose) [2]: 5.12% | EC50 [3]: 0.603 µM | Max. Effect (%) [3]: 99% | Hill Slope [3]: 0.91 | Max. Fit [3]: 101 | Min. Fit [3]: −1

Cc1ccsc1C(=O)N1CCC[C@H]1c1ccccc1-c1cccc(Cl)c1 [ESC1002321]
Alamar Blue % Viability (50 μM Dose) [1]: 84.52% | LDH % Toxicity (50 μM Dose) [2]: 5.98% | EC50 [3]: 0.263 µM | Max. Effect (%) [3]: 105% | Hill Slope [3]: 0.92 | Max. Fit [3]: 102 | Min. Fit [3]: 4

Cc1ccsc1C(=O)N1CCC[C@H]1c1ccccc1-c1cccc(S(C)(=O)=O)c1 [ESC1002322]
Alamar Blue % Viability (50 μM Dose) [1]: 89.24% | LDH % Toxicity (50 μM Dose) [2]: 6.93% | EC50 [3]: > 20 µM | Max. Effect (%) [3]: 41%

Cc1ccccc1-c1ccccc1[C@@H]1CCCN1C(=O)c1sccc1C [ESC1002323]
Alamar Blue % Viability (50 μM Dose) [1]: 96.19% | LDH % Toxicity (50 μM Dose) [2]: 5.03% | EC50 [3]: 0.468 µM | Max. Effect (%) [3]: 106% | Hill Slope [3]: 1.4 | Max. Fit [3]: 101 | Min. Fit [3]: 7

Cc1ccsc1C(=O)N1CCC[C@H]1c1ccccc1-c1ccccc1Cl [ESC1002324]
Alamar Blue % Viability (50 μM Dose) [1]: 85.64% | LDH % Toxicity (50 μM Dose) [2]: 5.04% | EC50 [3]: 0.295 µM | Max. Effect (%) [3]: 99% | Hill Slope [3]: 1 | Max. Fit [3]: 102 | Min. Fit [3]: 0

COc1ccccc1-c1ccccc1[C@@H]1CCCN1C(=O)c1sccc1C [ESC1002325]
Alamar Blue % Viability (50 μM Dose) [1]: 89.12% | LDH % Toxicity (50 μM Dose) [2]: 4.36% | EC50 [3]: 0.309 µM | Max. Effect (%) [3]: 98% | Hill Slope [3]: 0.87 | Max. Fit [3]: 100 | Min. Fit [3]: −11

COc1cccc(-c2ccccc2[C@@H]2CCCN2C(=O)c2sccc2C)c1OC [ESC1002326]
Alamar Blue % Viability (50 μM Dose) [1]: 88.92% | LDH % Toxicity (50 μM Dose) [2]: 5.05% | EC50 [3]: 0.708 µM | Max. Effect (%) [3]: 97% | Hill Slope [3]: 1.1 | Max. Fit [3]: 99 | Min. Fit [3]: 4

Cc1ccsc1C(=O)N1CCC[C@H]1c1ccccc1-c1ccc(Cl)c(C(F)(F)F)c1 [ESC1002327]
Alamar Blue % Viability (50 μM Dose) [1]: 90.36% | LDH % Toxicity (50 μM Dose) [2]: 4.61% | EC50 [3]: 1.45 µM | Max. Effect (%) [3]: 89% | Hill Slope [3]: 0.84 | Max. Fit [3]: 100 | Min. Fit [3]: −7

CN(C)CCN(C(=O)c1ccccc1F)c1cccc(N(C)Cc2c[nH]cn2)c1 [ESC1002334, N-[2-(dimethylamino)ethyl]-2-fluoro-N-[3-[1H-imidazol-4-ylmethyl(methyl)amino]phenyl]benzamide]
Alamar Blue % Viability (50 μM Dose) [1]: 92.96% | LDH % Toxicity (50 μM Dose) [2]: 5.17% | EC50 [3]: > 20 µM | Max. Effect (%) [3]: 23%

Cc1ccc(-c2ccccc2[C@@H]2CCCN2C(=O)c2sccc2C)cc1 [ESC1002337]
Alamar Blue % Viability (50 μM Dose) [1]: 85.13% | LDH % Toxicity (50 μM Dose) [2]: 4.10% | EC50 [3]: 0.209 µM | Max. Effect (%) [3]: 102% | Hill Slope [3]: 1.3 | Max. Fit [3]: 99 | Min. Fit [3]: −7

COc1cccc(-c2ccccc2[C@@H]2CCCN2C(=O)c2sccc2C)c1 [ESC1002338]
Alamar Blue % Viability (50 μM Dose) [1]: 82.98% | LDH % Toxicity (50 μM Dose) [2]: 4.64% | IC50 ([3]; 17β-HSD10 inhibition, read-out: IC50): 0.191 µM | EC50 [3]: 0.191 µM | Max. Effect (%) [3]: 101% | Hill Slope [3]: 1.1 | Max. Fit [3]: 100 | Min. Fit [3]: 0

Cc1ccsc1C(=O)N1CCC[C@H]1c1ccccc1-c1cccc(C)c1C [ESC1002339]
Alamar Blue % Viability (50 μM Dose) [1]: 82.52% | LDH % Toxicity (50 μM Dose) [2]: 4.39% | EC50 [3]: 0.525 µM | Max. Effect (%) [3]: 99% | Hill Slope [3]: 1.4 | Max. Fit [3]: 97 | Min. Fit [3]: 7

Cc1ccsc1C(=O)N1CCC[C@H]1c1ccccc1-c1ccc(Cl)cc1Cl [ESC1002340]
Alamar Blue % Viability (50 μM Dose) [1]: 94.26% | LDH % Toxicity (50 μM Dose) [2]: 5.33% | EC50 [3]: 0.631 µM | Max. Effect (%) [3]: 105% | Hill Slope [3]: 1.6 | Max. Fit [3]: 96 | Min. Fit [3]: −7

Cc1ccsc1C(=O)N1CCC[C@H]1c1ccccc1-c1cnn(C2CCOCC2)c1 [ESC1002341]
Alamar Blue % Viability (50 μM Dose) [1]: 96.72% | LDH % Toxicity (50 μM Dose) [2]: 5.13% | EC50 [3]: 1.62 µM | Max. Effect (%) [3]: 91% | Hill Slope [3]: 0.87 | Max. Fit [3]: 102 | Min. Fit [3]: −6

CN(Cc1c[nH]cn1)c1cccc(N(CC2CC2)C(=O)c2ccccc2F)c1 [ESC1002342, N-(cyclopropylmethyl)-2-fluoro-N-[3-[1H-imidazol-4-ylmethyl(methyl)amino]phenyl]benzamide]
Alamar Blue % Viability (50 μM Dose) [1]: 85.04% | LDH % Toxicity (50 μM Dose) [2]: 4.76% | EC50 [3]: 0.708 µM | Max. Effect (%) [3]: 99% | Hill Slope [3]: 1.6 | Max. Fit [3]: 95 | Min. Fit [3]: −1

— patent US20260132123A1, “ABAD INHIBITOR COMPOUNDS” (UNIVERSITY COURT OF THE UNIVERSITY OF ST ANDREWS, priority 2021, published 2026)
